Measurements published in PubChem BioAssay (NCI).
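1) Cells in 96-well plates. 2) Compound, 48 h, 5 concentrations. 3) Linear interpolation between surrounding doses. 4) Unreached endpoint = highest concentration. GI50: concentration for 50% inhibition of growth. TGI: concentration producing complete growth inhibition.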

Assays:
Test in all cases: DTP human tumour cell line panel, 48 h
KM12 colon = system: KM12 colon
SN12C renal = system: SN12C renal
786-0 renal = system: 786-0 renal
BT-549 breast = system: BT-549 breast
SK-OV-3 ovarian = system: SK-OV-3 ovarian
SK-MEL-2 melanoma = system: SK-MEL-2 melanoma
UACC-257 melanoma = system: UACC-257 melanoma
CAKI-1 renal = system: CAKI-1 renal
SK-MEL-5 melanoma = system: SK-MEL-5 melanoma
NCI-H460 lung = system: NCI-H460 lung
NCI-H226 lung = system: NCI-H226 lung
MOLT-4 leukemia = system: MOLT-4 leukemia
NCI-H23 lung = system: NCI-H23 lung
HOP-62 NSCLC = system: HOP-62 NSCLC
A498 renal = system: A498 renal
SNB-19 CNS = system: SNB-19 CNS
OVCAR-3 ovarian = system: OVCAR-3 ovarian
PC-3 prostate = system: PC-3 prostate
LOX IMVI melanoma = system: LOX IMVI melanoma
HCT-116 colon = system: HCT-116 colon
EKVX NSCLC = system: EKVX NSCLC
HL-60(TB) leukemia = system: HL-60(TB) leukemia
ACHN renal = system: ACHN renal
NCI-H522 lung = system: NCI-H522 lung
CCRF-CEM leukemia = system: CCRF-CEM leukemia
OVCAR-5 ovarian = system: OVCAR-5 ovarian
NCI/ADR-RES ovarian = system: NCI/ADR-RES ovarian
SF-295 CNS = system: SF-295 CNS
HS 578T breast = system: HS 578T breast
SNB-75 CNS = system: SNB-75 CNS
DU-145 prostate = system: DU-145 prostate
COLO 205 colon = system: COLO 205 colon
T-47D breast = system: T-47D breast
MDA-MB-435 = system: MDA-MB-435
M14 melanoma = system: M14 melanoma
HCC-2998 colon = system: HCC-2998 colon
UO-31 renal = system: UO-31 renal
SF-539 CNS = system: SF-539 CNS
SW-620 colon = system: SW-620 colon
SF-268 CNS = system: SF-268 CNS
UACC-62 melanoma = system: UACC-62 melanoma
SR leukemia = system: SR leukemia
RXF 393 renal = system: RXF 393 renal
SK-MEL-28 melanoma = system: SK-MEL-28 melanoma
MCF7 breast = system: MCF7 breast
K-562 leukemia = system: K-562 leukemia
A549 NSCLC = system: A549 NSCLC
OVCAR-4 ovarian = system: OVCAR-4 ovarian
IGROV1 ovarian = system: IGROV1 ovarian
RPMI-8226 leukemia = system: RPMI-8226 leukemia
HOP-92 NSCLC = system: HOP-92 NSCLC
MDA-MB-231 breast = system: MDA-MB-231 breast
OVCAR-8 ovarian = system: OVCAR-8 ovarian
TK-10 renal = system: TK-10 renal

Nc1nc(/C=C\c2ccc([N+](=O)[O-])s2)nc(N2CCOCC2)n1
GI50 (KM12 colon): 3.5 µM
TGI (KM12 colon): 16.5 µM
GI50 (SN12C renal): 13 µM
TGI (SN12C renal): 26.4 µM
GI50 (786-0 renal): 15.8 µM
TGI (786-0 renal): 30.1 µM
GI50 (BT-549 breast): 9.29 µM
TGI (BT-549 breast): 26.9 µM
GI50 (SK-OV-3 ovarian): 16.3 µM
TGI (SK-OV-3 ovarian): 43 µM
GI50 (SK-MEL-2 melanoma): 17.4 µM
TGI (SK-MEL-2 melanoma): 44.7 µM
GI50 (UACC-257 melanoma): 10.7 µM
TGI (UACC-257 melanoma): 23.1 µM
GI50 (CAKI-1 renal): 19.7 µM
TGI (CAKI-1 renal): 39.6 µM
GI50 (SK-MEL-5 melanoma): 5.84 µM
TGI (SK-MEL-5 melanoma): 19.1 µM
GI50 (NCI-H460 lung): 13.7 µM
TGI (NCI-H460 lung): 26.6 µM
GI50 (NCI-H226 lung): 16 µM
TGI (NCI-H226 lung): 46.2 µM
GI50 (MOLT-4 leukemia): 11.1 µM
TGI (MOLT-4 leukemia): 42.1 µM
GI50 (NCI-H23 lung): 10.2 µM
TGI (NCI-H23 lung): 22.7 µM
GI50 (HOP-62 NSCLC): 17.8 µM
TGI (HOP-62 NSCLC): 32.9 µM
GI50 (A498 renal): 9 µM
TGI (A498 renal): 22.7 µM
GI50 (SNB-19 CNS): 23.3 µM
TGI (SNB-19 CNS): 69.5 µM
GI50 (OVCAR-3 ovarian): 15.2 µM
TGI (OVCAR-3 ovarian): 37.5 µM
GI50 (PC-3 prostate): 11.5 µM
TGI (PC-3 prostate): 28.1 µM
GI50 (LOX IMVI melanoma): 2.12 µM
TGI (LOX IMVI melanoma): 9.52 µM
GI50 (HCT-116 colon): 2.98 µM
TGI (HCT-116 colon): 10.9 µM
GI50 (EKVX NSCLC): 17.8 µM
TGI (EKVX NSCLC): 56.8 µM
GI50 (HL-60(TB) leukemia): 6.45 µM
TGI (HL-60(TB) leukemia): 26.2 µM
GI50 (ACHN renal): 5.06 µM
TGI (ACHN renal): 17.7 µM
GI50 (NCI-H522 lung): 4.57 µM
TGI (NCI-H522 lung): 17.1 µM
GI50 (CCRF-CEM leukemia): 3.33 µM
TGI (CCRF-CEM leukemia): 16.9 µM
GI50 (OVCAR-5 ovarian): 22.2 µM
TGI (OVCAR-5 ovarian): 37.2 µM
GI50 (NCI/ADR-RES ovarian): 12.7 µM
TGI (NCI/ADR-RES ovarian): 33.3 µM
GI50 (SF-295 CNS): 36.4 µM
TGI (SF-295 CNS): > 100 µM
GI50 (HS 578T breast): 25.6 µM
TGI (HS 578T breast): > 100 µM
GI50 (SNB-75 CNS): 13.8 µM
TGI (SNB-75 CNS): 34.2 µM
GI50 (DU-145 prostate): 11 µM
TGI (DU-145 prostate): 26.7 µM
GI50 (COLO 205 colon): 2.08 µM
TGI (COLO 205 colon): 5.09 µM
GI50 (T-47D breast): 8.98 µM
TGI (T-47D breast): 28.1 µM
GI50 (MDA-MB-435): 8.19 µM
TGI (MDA-MB-435): 22.8 µM
GI50 (M14 melanoma): 10.5 µM
TGI (M14 melanoma): 24.7 µM
GI50 (HCC-2998 colon): 5.18 µM
TGI (HCC-2998 colon): 16.7 µM
GI50 (UO-31 renal): 14.9 µM
TGI (UO-31 renal): 30.1 µM
GI50 (SF-539 CNS): 19.7 µM
TGI (SF-539 CNS): 46.3 µM
GI50 (SW-620 colon): 13.9 µM
TGI (SW-620 colon): > 100 µM
GI50 (SF-268 CNS): 8.24 µM
TGI (SF-268 CNS): 22 µM
GI50 (UACC-62 melanoma): 7.08 µM
TGI (UACC-62 melanoma): 19.7 µM
GI50 (SR leukemia): 5.14 µM
TGI (SR leukemia): 20.3 µM
GI50 (RXF 393 renal): 11.1 µM
TGI (RXF 393 renal): 26.2 µM
GI50 (SK-MEL-28 melanoma): 17.9 µM
TGI (SK-MEL-28 melanoma): 38.2 µM
GI50 (MCF7 breast): 5.77 µM
TGI (MCF7 breast): 19.5 µM
GI50 (K-562 leukemia): 7.71 µM
TGI (K-562 leukemia): 24.7 µM
GI50 (A549 NSCLC): 16.1 µM
TGI (A549 NSCLC): 32.6 µM
GI50 (OVCAR-4 ovarian): 2.65 µM
TGI (OVCAR-4 ovarian): 15.3 µM
GI50 (IGROV1 ovarian): 4.93 µM
TGI (IGROV1 ovarian): 19.8 µM
GI50 (RPMI-8226 leukemia): 3.45 µM
TGI (RPMI-8226 leukemia): 17.6 µM
GI50 (HOP-92 NSCLC): 13.2 µM
TGI (HOP-92 NSCLC): 28.1 µM
GI50 (MDA-MB-231 breast): 5.55 µM
TGI (MDA-MB-231 breast): 19.1 µM
GI50 (OVCAR-8 ovarian): 13.7 µM
TGI (OVCAR-8 ovarian): > 100 µM
GI50 (TK-10 renal): 22 µM
TGI (TK-10 renal): 46.9 µM
